Assay results taken from the supplement of paper PMC10307832.

Assays:
Assay in all cases: relative viability (nuclei count vs DMSO), 5 days (fraction); higher = more cells survive
Apatinib + Pictilisib = compound: N#CC1(c2ccc(NC(=O)c3cccnc3NCc3ccncc3)cc2)CCCC1 [Apatinib] + CS(=O)(=O)N1CCN(Cc2cc3nc(-c4cccc5[nH]ncc45)nc(N4CCOCC4)c3s2)CC1 [Pictilisib] (partner 1 µM)
How it was run: (§1)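 One day after seeding in 1536-well plates, lung cancer cell lines were dosed by pin tool. Dosing was either single-drug or a fixed anchor-drug dose plus five library-drug doses (not always all listed) in √10 steps. After 5 days, nuclei were stained in one fix-and-stain step and counted on 4× images, and relative viability is the nuclei count of treated wells over that of vehicle wells, given as the median of duplicate plates.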

Metformin + Olaparib = compound: CN(C)C(=N)NC(=N)N [Metformin] + O=C(c1cc(Cc2n[nH]c(=O)c3ccccc23)ccc1F)N1CCN(C(=O)C2CC2)CC1 [Olaparib] (partner 8 µM)
How it was run: as §1

Apatinib + Vorinostat = compound: N#CC1(c2ccc(NC(=O)c3cccnc3NCc3ccncc3)cc2)CCCC1 [Apatinib] + O=C(CCCCCCC(=O)Nc1ccccc1)NO [Vorinostat] (partner 1 µM)
How it was run: as §1

Metformin + Pictilisib = compound: CN(C)C(=N)NC(=N)N [Metformin] + CS(=O)(=O)N1CCN(Cc2cc3nc(-c4cccc5[nH]ncc45)nc(N4CCOCC4)c3s2)CC1 [Pictilisib] (partner 1 µM)
How it was run: as §1

Cell Line: NCI-H460
- relative viability (Apatinib + Pictilisib; first compound 0.08 µM): 0.335
- relative viability (Apatinib + Pictilisib; first compound 0.253 µM): 0.374
- relative viability (Apatinib + Pictilisib; first compound 0.8 µM): 0.452
- relative viability (Apatinib + Pictilisib; first compound 2.53 µM): 0.391
- relative viability (Apatinib + Pictilisib; first compound 8 µM): 0.458
- relative viability (Metformin + Olaparib; first compound 31.62 µM): 0.412
- relative viability (Metformin + Olaparib; first compound 100 µM): 0.422
- relative viability (Metformin + Olaparib; first compound 316.23 µM): 0.294
- relative viability (Metformin + Olaparib; first compound 1000 µM): 0.262
- relative viability (Apatinib + Vorinostat; first compound 0.08 µM): 0.741
- relative viability (Apatinib + Vorinostat; first compound 0.253 µM): 0.73
- relative viability (Apatinib + Vorinostat; first compound 0.8 µM): 0.623
- relative viability (Apatinib + Vorinostat; first compound 2.53 µM): 0.577
- relative viability (Apatinib + Vorinostat; first compound 8 µM): 0.417
- relative viability (Metformin + Pictilisib; first compound 31.62 µM): 0.41
- relative viability (Metformin + Pictilisib; first compound 100 µM): 0.327
- relative viability (Metformin + Pictilisib; first compound 316.23 µM): 0.337
- relative viability (Metformin + Pictilisib; first compound 1000 µM): 0.401
